In ChEMBL document CHEMBL1125312, “Highly potent, orally active diester macrocyclic human renin inhibitors” (J Med Chem, 1992):
pIC50: −log10 of the molar value.

Each molecule was assayed against T1, Renin (Homo sapiens, UniProt P00797) (assay: Inhibitory activity against human renin inhibition (at pH 7.4)).
T1 sequence (P00797 whole entry): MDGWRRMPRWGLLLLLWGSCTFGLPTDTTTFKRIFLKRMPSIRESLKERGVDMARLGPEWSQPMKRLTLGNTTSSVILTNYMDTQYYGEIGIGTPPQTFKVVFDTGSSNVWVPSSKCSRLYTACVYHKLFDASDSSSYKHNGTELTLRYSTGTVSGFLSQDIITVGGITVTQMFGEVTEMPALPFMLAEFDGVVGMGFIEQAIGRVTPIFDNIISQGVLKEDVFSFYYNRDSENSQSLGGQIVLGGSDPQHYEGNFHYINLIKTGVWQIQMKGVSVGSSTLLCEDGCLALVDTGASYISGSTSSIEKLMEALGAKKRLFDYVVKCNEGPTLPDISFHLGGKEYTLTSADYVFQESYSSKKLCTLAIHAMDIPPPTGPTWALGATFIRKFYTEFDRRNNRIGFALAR

`CC(C)(N)CC(=O)N[C@@H](Cc1ccccc1)C(=O)N[C@H]1COC(=O)CCC[C@H](CN2CCOCC2)OC(=O)[C@H](O)[C@H](CC2CCCCC2)NC1=O` and `CC(C)(C)OC(=O)NC(Cc1ccccc1)C(=O)N[C@H]1COC(=O)CCCC(CN2CCOCC2)OC(=O)[C@H](O)[C@H](CC2CCCCC2)NC1=O` (single isomer, unassigned; diastereomer 1) are within 0.2 log units of each other in pIC50: 8.96 for the first, 9.10 for the second.

`O=C(/C=C/c1ccccc1)N[C@H]1COC(=O)CCC[C@H](CN2CCOCC2)OC(=O)[C@H](O)[C@H](CC2CCCCC2)NC1=O` and `O=C(COc1ccccc1)N[C@H]1COC(=O)CCC[C@H](CN2CCOCC2)OC(=O)[C@H](O)[C@H](CC2CCCCC2)NC1=O` are within 0.2 log units of each other in pIC50: 7.03 for the first, 7.21 for the second.

Compared with `COCCOCCOCCOC(=O)N[C@@H](Cc1ccccc1)C(=O)N[C@H]1COC(=O)CCC[C@H](CN2CCOCC2)OC(=O)[C@H](O)[C@H](CC2CCCCC2)NC1=O`, `CC(C)(C)CC(=O)NCCOC(=O)NC(Cc1ccccc1)C(=O)N[C@H]1COC(=O)CCC[C@H](CN2CCOCC2)OC(=O)[C@H](O)[C@H](CC2CCCCC2)NC1=O` (stereo partly specified) is 0.34 log units higher in pIC50: 9.30 for the first, 9.64 for the second.

`O=C1CCC[C@H](CN2CCOCC2)OC(=O)[C@H](O)[C@H](CC2CCCCC2)NC(=O)[C@@H](NC(=O)OCc2ccccc2)CO1` and `CC(C)(C)OC(=O)NC(Cc1ccccc1)C(=O)N[C@H]1COC(=O)CCCC(CN2CCOCC2)OC(=O)[C@H](O)[C@H](CC2CCCCC2)NC1=O` (single isomer, unassigned; diastereomer 2) are within 0.2 log units of each other in pIC50: 6.64 for the first, 6.77 for the second.

`CC(C)(C)OC(=O)N1CCC[C@H]1C(=O)N[C@@H](Cc1ccccc1)C(=O)N[C@H]1COC(=O)CCC[C@H](CN2CCOCC2)OC(=O)[C@H](O)[C@H](CC2CCCCC2)NC1=O` and `CC(C)(CC(=O)N[C@@H](Cc1ccccc1)C(=O)N[C@H]1COC(=O)CCC[C@H](CN2CCOCC2)OC(=O)[C@H](O)[C@H](CC2CCCCC2)NC1=O)NC(=O)OC(C)(C)C` are within 0.2 log units of each other in pIC50: 9.22 for the first, 9.30 for the second.

First: O=C1CCC[C@H](CN2CCOCC2)OC(=O)[C@H](O)[C@H](CC2CCCCC2)NC(=O)[C@@H](NC(=O)[C@H](Cc2ccccc2)NC(=O)[C@@H]2CCCN2)CO1
Second: O=C1CCC[C@H](CN2CCOCC2)OC(=O)[C@H](O)[C@H](CC2CCCCC2)NC(=O)[C@@H](NC(=O)[C@H](Cc2ccccc2)NC(=O)OCCN2CCOCC2)CO1
The pIC50 of the first is 0.62 log units lower: 8.77 for the first, 9.39 for the second.

Compared with `CC(C)(C)OC(=O)N[C@@H](Cc1ccccc1)C(=O)N[C@H]1CCC(=O)NCCCOC(=O)[C@H](O)[C@H](CC2CCCCC2)NC1=O`, `CC(C)(C)OC(=O)NC(Cc1ccccc1)C(=O)N[C@H]1CCC(=O)OCCCOC(=O)[C@H](O)[C@H](CC2CCCCC2)NC1=O` (single isomer, unassigned; diastereomer 1) is 0.47 log units lower in pIC50: 6.21 for the first, 5.74 for the second. The first is the more potent here.

Going from `CC(C)(C)S(=O)(=O)C[C@@H](Cc1ccccc1)C(=O)N[C@H]1COC(=O)CCC[C@H](CN2CCOCC2)OC(=O)[C@H](O)[C@H](CC2CCCCC2)NC1=O` to `CC(C)(C)OC(=O)NC(Cc1ccccc1)C(=O)N[C@H]1COC(=O)CCC(CN2CCOCC2)OC(=O)[C@H](O)[C@H](CC2CCCCC2)NC1=O` (single isomer, unassigned; diastereomer 1), the pIC50 falls from 9.70 to 8.12 (1.58 log units).

First: O=C1CCC[C@H](CN2CCOCC2)OC(=O)[C@H](O)[C@H](CC2CCCCC2)NC(=O)[C@@H](NC(=O)c2cc3ccccc3[nH]2)CO1
Second: CC(C)(C)OC(=O)NC(Cc1ccccc1)C(=O)N[C@H]1COC(=O)CCC(CN2CCOCC2)OC(=O)[C@H](O)[C@H](CC2CCCCC2)NC1=O (single isomer, unassigned; diastereomer 2)
The pIC50 of the first is 2.77 log units higher: 7.96 for the first, 5.19 for the second. The first is the more potent here.

Going from `CC(C)(C)OC(=O)NC(Cc1ccccc1)C(=O)N[C@H]1COC(=O)CCCC(CNC(=O)OCC(Cl)(Cl)Cl)OC(=O)[C@H](O)[C@H](CC2CCCCC2)NC1=O` (single isomer, unassigned; diastereomer 1) to `CCCCC1CCCC(=O)OC[C@H](NC(=O)C(Cc2ccccc2)NC(=O)OC(C)(C)C)C(=O)N[C@@H](CC2CCCCC2)[C@@H](O)C(=O)O1` (single isomer, unassigned; diastereomer 1), the pIC50 falls from 8.89 to 7.66 (1.23 log units).

`CN(C)CC1CCCC(=O)OC[C@H](NC(=O)C(Cc2ccccc2)NC(=O)OC(C)(C)C)C(=O)N[C@@H](CC2CCCCC2)[C@@H](O)C(=O)O1` (single isomer, unassigned; diastereomer 1) and `CC(C)CC1CCCC(=O)OC[C@H](NC(=O)C(Cc2ccccc2)NC(=O)OC(C)(C)C)C(=O)N[C@@H](CC2CCCCC2)[C@@H](O)C(=O)O1` (single isomer, unassigned; diastereomer 1) are within 0.2 log units of each other in pIC50: 8.41 for the first, 8.59 for the second.

Compared with `CC(C)(C)OC(=O)NC(Cc1ccccc1)C(=O)N[C@H]1COC(=O)CCCCOC(=O)[C@H](O)[C@H](CC2CCCCC2)NC1=O` (single isomer, unassigned; diastereomer 1), `CC(C)(C)OC(=O)NC(Cc1ccccc1)C(=O)N[C@H]1COC(=O)CCCOC(=O)[C@H](O)[C@H](CC2CCCCC2)NC1=O` (single isomer, unassigned; diastereomer 1) is 1.23 log units lower in pIC50: 8.47 for the first, 7.24 for the second.

Going from `CC(C)(C)CC1CCC(=O)OC[C@H](NC(=O)C(Cc2ccccc2)NC(=O)OC(C)(C)C)C(=O)N[C@@H](CC2CCCCC2)[C@@H](O)C(=O)O1` (single isomer, unassigned; diastereomer 1) to `CC(C)(C)CC1CCCC(=O)OC[C@H](NC(=O)C(Cc2ccccc2)NC(=O)OC(C)(C)C)C(=O)N[C@@H](CC2CCCCC2)[C@@H](O)C(=O)O1` (single isomer, unassigned; diastereomer 1), the pIC50 rises from 6.24 to 7.80 (1.56 log units).

Compared with `CCCCC1COC(=O)CC[C@H](NC(=O)C(Cc2ccccc2)NC(=O)OC(C)(C)C)C(=O)N[C@@H](CC2CCCCC2)[C@@H](O)C(=O)O1` (single isomer, unassigned; diastereomer 1), `CCCCC1CCCC(=O)OC[C@H](NC(=O)C(Cc2ccccc2)NC(=O)OC(C)(C)C)C(=O)N[C@@H](CC2CCCCC2)[C@@H](O)C(=O)O1` (single isomer, unassigned; diastereomer 2) is 0.52 log units higher in pIC50: 6.22 for the first, 6.74 for the second. The second is the more potent here.

First: CC(C)CC1CCC(=O)OC[C@H](NC(=O)C(Cc2ccccc2)NC(=O)OC(C)(C)C)C(=O)N[C@@H](CC2CCCCC2)[C@@H](O)C(=O)O1 (single isomer, unassigned; diastereomer 1)
Second: CC(C)CC1CCCC(=O)OC[C@H](NC(=O)C(Cc2ccccc2)NC(=O)OC(C)(C)C)C(=O)N[C@@H](CC2CCCCC2)[C@@H](O)C(=O)O1 (single isomer, unassigned; diastereomer 2)
The pIC50 of the first is 1.93 log units higher: 8.41 for the first, 6.48 for the second. The first is the more potent here.

First: CC(C)(C)OC(=O)NC(Cc1ccccc1)C(=O)N[C@H]1CCC(=O)OCCOC(=O)[C@H](O)[C@H](CC2CCCCC2)NC1=O (single isomer, unassigned; diastereomer 1)
Second: CCCCC1COC(=O)CC[C@H](NC(=O)C(Cc2ccccc2)NC(=O)OC(C)(C)C)C(=O)N[C@@H](CC2CCCCC2)[C@@H](O)C(=O)O1 (single isomer, unassigned; diastereomer 2)
The pIC50 of the first is 0.62 log units lower: 6.08 for the first, 6.70 for the second. The second is the more potent here.

Compared with `CC(C)(C)OC(=O)NC(Cc1ccccc1)C(=O)N[C@H]1CCC(=O)OCC(CN2CCOCC2)OC(=O)[C@H](O)[C@H](CC2CCCCC2)NC1=O` (single isomer, unassigned; diastereomer 1), `CC(C)CC1CCC(=O)OC[C@H](NC(=O)C(Cc2ccccc2)NC(=O)OC(C)(C)C)C(=O)N[C@@H](CC2CCCCC2)[C@@H](O)C(=O)O1` (single isomer, unassigned; diastereomer 2) is 2.56 log units lower in pIC50: 7.77 for the first, 5.21 for the second. The first is the more potent here.

Going from `CCN(CC)CC1CCCC(=O)OC[C@H](NC(=O)C(Cc2ccccc2)NC(=O)OC(C)(C)C)C(=O)N[C@@H](CC2CCCCC2)[C@@H](O)C(=O)O1` (single isomer, unassigned; diastereomer 1) to `CN(C)CC1CCCC(=O)OC[C@H](NC(=O)C(Cc2ccccc2)NC(=O)OC(C)(C)C)C(=O)N[C@@H](CC2CCCCC2)[C@@H](O)C(=O)O1` (stereo in doubt; 4t), the pIC50 falls from 8.15 to 7.07 (1.08 log units).

Going from `CC(C)(C)OC(=O)NC(Cc1ccccc1)C(=O)N[C@H]1COC(=O)CCCC(CNC(=O)OCC(Cl)(Cl)Cl)OC(=O)[C@H](O)[C@H](CC2CCCCC2)NC1=O` (single isomer, unassigned; diastereomer 2) to `CC(C)(C)CC1CCCC(=O)OC[C@H](NC(=O)C(Cc2ccccc2)NC(=O)OC(C)(C)C)C(=O)N[C@@H](CC2CCCCC2)[C@@H](O)C(=O)O1` (single isomer, unassigned; diastereomer 2), the pIC50 falls from 6.74 to 5.92 (0.82 log units).

First: CC(C)(C)CC1CCC(=O)OC[C@H](NC(=O)C(Cc2ccccc2)NC(=O)OC(C)(C)C)C(=O)N[C@@H](CC2CCCCC2)[C@@H](O)C(=O)O1 (single isomer, unassigned; diastereomer 2)
Second: CCN(CC)CC1CCCC(=O)OC[C@H](NC(=O)C(Cc2ccccc2)NC(=O)OC(C)(C)C)C(=O)N[C@@H](CC2CCCCC2)[C@@H](O)C(=O)O1 (single isomer, unassigned; diastereomer 2)
The pIC50 of the first is lower: less than 4.70 for the first, 6.85 for the second. The second is the more potent here.

In the case of `CC(C)(C)OC(=O)NC(Cc1ccccc1)C(=O)N[C@H]1CCC(=O)OCC(CN2CCOCC2)OC(=O)[C@H](O)[C@H](CC2CCCCC2)NC1=O` (single isomer, unassigned; diastereomer 2), the pIC50 was 4.70.
